# Measurements from ChEMBL document CHEMBL1201862, “PubChem BioAssay data set” (2004).
#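 Following 48 hours of exposure in 96-well plates, responses at five concentrations were used to interpolate endpoints linearly. The concentration for 50% growth inhibition is given as GI50.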 Active and inactive are the calls of the source. Rule as the data show it: active = GI50 up to about 1.1 µM and inactive = higher.
# Columns and labels:
# Experiment in all cases: DTP human tumour cell line panel, 48 h
# CAKI-1 = tested on: CAKI-1
# OVCAR-8 = tested on: OVCAR-8
# SK-MEL-5 = tested on: SK-MEL-5
# RXF 393 = tested on: RXF 393
# DU-145 = tested on: DU-145
# NCI-H460 = tested on: NCI-H460
# A549 = tested on: A549
# SK-OV-3 = tested on: SK-OV-3
# SNB-19 = tested on: SNB-19
# NCI-H226 = tested on: NCI-H226
# NCI/ADR-RES = tested on: NCI/ADR-RES
# SK-MEL-28 = tested on: SK-MEL-28
# M14 = tested on: M14
# MDA-MB-231 = tested on: MDA-MB-231
# HCT-15 = tested on: HCT-15
# A498 = tested on: A498
# HOP-62 = tested on: HOP-62
# MDA-MB-435 = tested on: MDA-MB-435
# NCI-H23 = tested on: NCI-H23
# MOLT-4 = tested on: MOLT-4
Compound,GI50 (CAKI-1),GI50 (OVCAR-8),GI50 (SK-MEL-5),GI50 (RXF 393),GI50 (DU-145),GI50 (NCI-H460),GI50 (A549),GI50 (SK-OV-3),GI50 (SNB-19),GI50 (NCI-H226),GI50 (NCI/ADR-RES),GI50 (SK-MEL-28),GI50 (M14),GI50 (MDA-MB-231),GI50 (HCT-15),GI50 (A498),GI50 (HOP-62),GI50 (MDA-MB-435),GI50 (NCI-H23),GI50 (MOLT-4)
CC1(C)N=c2c(ncn2CCCO)=C(C(N)=O)N1,> 100 µM (inactive),> 100 µM (inactive),> 100 µM (inactive),> 100 µM (inactive),> 100 µM (inactive),> 100 µM (inactive),> 100 µM (inactive),> 100 µM (inactive),> 100 µM (inactive),> 100 µM (inactive),> 100 µM (inactive),> 100 µM (inactive),> 100 µM (inactive),> 100 µM (inactive),> 100 µM,> 100 µM (inactive),> 100 µM (inactive),> 100 µM (inactive),> 100 µM (inactive),
COC1C=COC2(C)Oc3c(C)c(O)c4c(O)c(c(C5SCCS5)c(O)c4c3C2=O)NC(=O)/C(C)=C\C=CC(C)C(O)C(C)C(O)C(C)C(OC(C)=O)C1C (configuration not stated),9.91 µM (inactive),7.87 µM (inactive),7.89 µM (inactive),6.05 µM (inactive),1.29 µM (inactive),4.26 µM (inactive),6.79 µM (inactive),14.1 µM (inactive),4.88 µM (inactive),9.04 µM (inactive),15.5 µM (inactive),6.56 µM (inactive),6.19 µM (inactive),5.71 µM (inactive),9.66 µM,13.1 µM (inactive),10.9 µM (inactive),4.26 µM (inactive),4.69 µM (inactive),2.32 µM (inactive)
CN(Cc1cccc2ccsc12)/N=C\c1ccc(Cl)cc1,> 100 µM (inactive),> 100 µM (inactive),15.5 µM (inactive),> 100 µM (inactive),> 100 µM (inactive),> 100 µM (inactive),30.4 µM (inactive),> 100 µM (inactive),> 100 µM (inactive),89.9 µM (inactive),> 100 µM (inactive),> 100 µM (inactive),79.4 µM (inactive),> 100 µM (inactive),34.7 µM,93.3 µM (inactive),> 100 µM (inactive),49.3 µM (inactive),28.4 µM (inactive),25.5 µM (inactive)
CCN(CCCl)c1cc(CN(C)C)cc(NC(=O)c2cc(C(=O)Nc3cc(CN(C)C)cc(N(CC)CCCl)c3)n(C)n2)c1,0.557 µM (active),0.143 µM (active),1.09 µM (active),0.449 µM (active),0.389 µM (active),< 0.01 µM (active),0.136 µM (active),0.331 µM (active),0.0658 µM (active),1.43 µM (inactive),10.3 µM (inactive),1.48 µM (inactive),0.381 µM (active),1.53 µM (inactive),2.31 µM,2 µM (inactive),0.121 µM (active),0.213 µM (active),0.284 µM (active),< 0.01 µM (active)
S=C1NCCN1C(=S)NC1CCCCC1,25.4 µM (inactive),47.6 µM (inactive),22.2 µM (inactive),4.28 µM (inactive),49.8 µM (inactive),20.3 µM (inactive),27 µM (inactive),39.4 µM (inactive),,22.2 µM (inactive),29.2 µM (inactive),29 µM (inactive),22.1 µM (inactive),44.8 µM (inactive),29 µM,18.8 µM (inactive),37.6 µM (inactive),26.2 µM (inactive),21.8 µM (inactive),21.1 µM (inactive)
Cc1cc(OCc2nnc3n2S(=O)(=O)c2ccccc2N3C)ccc1Cl,28.8 µM (inactive),26.3 µM (inactive),38.7 µM (inactive),21.2 µM (inactive),56 µM (inactive),39.9 µM (inactive),44.9 µM (inactive),10.4 µM (inactive),19.3 µM (inactive),31.2 µM (inactive),35.7 µM (inactive),86.5 µM (inactive),> 100 µM (inactive),16.3 µM (inactive),> 100 µM,24.6 µM (inactive),14.1 µM (inactive),> 100 µM (inactive),34.4 µM (inactive),55 µM (inactive)
O=c1cc(NNc2ccccc2)[nH]c(=S)[nH]1,20.3 µM (inactive),36.1 µM (inactive),57 µM (inactive),50.2 µM (inactive),64.9 µM (inactive),76.2 µM (inactive),> 100 µM (inactive),> 100 µM (inactive),> 100 µM (inactive),> 100 µM (inactive),40.6 µM (inactive),42.7 µM (inactive),36.7 µM (inactive),32.1 µM (inactive),17.8 µM,> 100 µM (inactive),> 100 µM (inactive),49.5 µM (inactive),47.1 µM (inactive),35.2 µM (inactive)
COc1cc(C)c(S(=O)(=O)N(CCCN)OCCCN)c(C)c1C,> 100 µM (inactive),38.5 µM (inactive),20.8 µM (inactive),15.6 µM (inactive),33.7 µM (inactive),47.1 µM (inactive),68.5 µM (inactive),> 100 µM (inactive),42 µM (inactive),> 100 µM (inactive),> 100 µM (inactive),38.9 µM (inactive),23.6 µM (inactive),25.5 µM (inactive),> 100 µM,39.4 µM (inactive),61.7 µM (inactive),38.9 µM (inactive),31.1 µM (inactive),13 µM (inactive)
O=C(O)Cc1ccc([N+](=O)[O-])cc1[N+](=O)[O-],> 100 µM (inactive),> 100 µM (inactive),> 100 µM (inactive),> 100 µM (inactive),> 100 µM (inactive),> 100 µM (inactive),> 100 µM (inactive),> 100 µM (inactive),> 100 µM (inactive),> 100 µM (inactive),> 100 µM (inactive),> 100 µM (inactive),> 100 µM (inactive),> 100 µM (inactive),> 100 µM,> 100 µM (inactive),> 100 µM (inactive),> 100 µM (inactive),> 100 µM (inactive),> 100 µM (inactive)
COc1ccc(-c2oc3c(OC)c(OC)cc(O)c3c(=O)c2OC)cc1,> 100 µM (inactive),> 100 µM (inactive),91.6 µM (inactive),> 100 µM (inactive),> 100 µM (inactive),> 100 µM (inactive),> 100 µM (inactive),36.5 µM (inactive),> 100 µM (inactive),> 100 µM (inactive),> 100 µM (inactive),> 100 µM (inactive),> 100 µM (inactive),69.2 µM (inactive),> 100 µM,45.8 µM (inactive),55.8 µM (inactive),> 100 µM (inactive),> 100 µM (inactive),> 100 µM (inactive)
COc1cc(C(=O)/C=C/c2ccc(OCC#N)cc2)cc(OC)c1OC,26.1 µM (inactive),29.5 µM (inactive),13.2 µM (inactive),18.1 µM (inactive),28.1 µM (inactive),28.8 µM (inactive),21.4 µM (inactive),40.6 µM (inactive),20.3 µM (inactive),23.2 µM (inactive),18 µM (inactive),17.3 µM (inactive),> 10 µM (inactive),> 10 µM (inactive),19.5 µM,21.4 µM (inactive),22.1 µM (inactive),20.5 µM (inactive),19.5 µM (inactive),27 µM (inactive)
COCC(C#N)NC1CC(OC2CC(O)(C(=O)CO)Cc3c(O)c4c(c(O)c32)C(=O)c2c(OC)cccc2C4=O)OC(C)C1O (configuration not stated),0.0388 µM (active),0.0676 µM (active),0.0303 µM (active),0.177 µM (active),0.0412 µM (active),< 0.01 µM (active),0.0521 µM (active),0.0869 µM (active),0.0427 µM (active),0.0278 µM (active),1.82 µM (inactive),0.156 µM (active),0.134 µM (active),0.112 µM (active),0.802 µM,0.0383 µM (active),0.0287 µM (active),0.108 µM (active),0.0592 µM (active),< 0.0137 µM (active)
C/C(=N/NC(=S)N1CC2CCC(CC2)C1)c1cnccn1,< 0.01 µM (active),< 0.01 µM (active),< 0.0175 µM (active),0.541 µM (active),0.376 µM (active),< 0.0109 µM (active),< 0.01 µM (active),< 0.01 µM (active),0.406 µM (active),< 0.01 µM (active),< 0.01 µM (active),1.64 µM (inactive),< 0.0104 µM (active),< 0.01 µM (active),< 0.01 µM,1.73 µM (inactive),< 0.01 µM (active),0.243 µM (active),< 0.01 µM (active),< 0.01 µM (active)
Nc1ccn(C2OC(COP(=O)(O)O)C(O)C2O)c(=O)n1 (configuration not stated),14.4 µM (inactive),2.47 µM (inactive),16.6 µM (inactive),11.1 µM (inactive),1.19 µM (inactive),0.32 µM (active),0.422 µM (active),42.1 µM (inactive),23.8 µM (inactive),3.18 µM (inactive),6.38 µM (inactive),,0.982 µM (active),> 100 µM (inactive),45.5 µM,26.8 µM (inactive),0.951 µM (active),14.5 µM (inactive),8.83 µM (inactive),0.0497 µM (active)
